According to patent publication US6479531B1, “Gastrin and cholecystokinin receptor ligands” (James Black Foundation Limited, priority 1998, dated 2002):

The molecules below were run against T1, CCKB receptor (Mus musculus, UniProt P56481) (assay: CCKB receptor radioligand binding assay in mouse cortical membranes). Conditions: [125I]-CCK8(S) 200 pM, 150 min at 21±3°, read-out: CCKB pKi (converted).
T1 construct: The whole brains from male mice (CD1 22-25 g; Charles River) were removed; from tissue; host or cells: cerebral cortex membranes of male CD1 mice
T1 sequence (P56481 1-453): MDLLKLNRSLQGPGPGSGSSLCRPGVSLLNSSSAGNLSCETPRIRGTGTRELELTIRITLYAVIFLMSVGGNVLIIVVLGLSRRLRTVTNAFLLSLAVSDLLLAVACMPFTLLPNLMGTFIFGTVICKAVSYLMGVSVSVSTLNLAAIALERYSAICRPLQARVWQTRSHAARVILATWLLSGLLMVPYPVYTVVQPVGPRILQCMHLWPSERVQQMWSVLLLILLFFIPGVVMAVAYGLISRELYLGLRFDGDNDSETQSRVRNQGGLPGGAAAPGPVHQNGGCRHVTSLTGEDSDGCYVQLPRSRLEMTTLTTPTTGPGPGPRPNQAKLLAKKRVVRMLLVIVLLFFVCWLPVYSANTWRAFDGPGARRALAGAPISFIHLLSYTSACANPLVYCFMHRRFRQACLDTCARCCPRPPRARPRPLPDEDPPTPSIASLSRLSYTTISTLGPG
Protocol: The compounds of the examples were tested for binding at the CCKB receptor in mouse cortical membranes by means of a radioligand binding assay. The procedure was as follows:
The whole brains from male mice (CD1 22-25 g; Charles River) were removed and placed in ice-cold buffer (pH 7.2 @ 21±3°) of the following composition (mM); 10 HEPES, 130 NaCl, 4.7 KCl, 5 MgCl2, 1 EDTA and containing 0.25 gl^−1 bacitracin. The cortex was dissected, weighed and homogenised in 40 ml ice-cold buffer using a Teflon-in-glass homogeniser. The homogenate was centrifuged at 39800 g for 20 min […], the supernatant discarded and the pellet resuspended by homogenisation in fresh buffer. The homogenate was recentrifuged (39800 g, 20 min @ 4°) and the final pellet was resuspended in HEPES buffer to give a tissue concentration of 20 mg ml^−1 (original wet weight).
The assay was terminated by rapid filtration through pre-soaked Whatman GF/B filters using a Brandell Cell Harvester. The filters were washed (3×3 ml) with ice-cold 50 mM Tris-HCl (pH 7.4 @ 4° C.) and bound radioactivity determined by counting (1 min) in a gamma-counter.

| SMILES | Ki |
| --- | --- |
| O=C(O)c1cc(NC(=O)c2[nH]c(-c3ccc4ccccc4c3)nc2CC2CCCCCC2)cc(C(=O)O)c1 [Example 20, 5-[(5-Cycloheptylmethyl-2-naphthalen-2-yl-1H-imidazole-4-carbonyl)-amino]-isophthalic Acid] | 251 nM |
| O=C(O)c1cccc(NC(=O)c2nc(-c3ccc4ccccc4c3)[nH]c2CCC23CC4CC(CC(C4)C2)C3)c1 [Example 45, 3-{[5-(2-Adamantan-1-yl-ethyl)-2-naphthalen-2-yl-1H-imidazole-4-carbonyl]-amino}-benzoic Acid] | 501 nM |
| O=C(Nc1cccc(CO)c1)c1nc(-c2ccccc2)[nH]c1CCC12CC3CC(CC(C3)C1)C2 [Example 48, 5-(2-Adamantan-1-yl-ethyl)-2-phenyl-1H-imidazole-4-carboxylic Acid (3-hydroxymethyl-phenyl)-amide] | 269 nM |
| O=C(Nc1cccc(-c2nnn[nH]2)c1)c1nc(-c2ccccc2)[nH]c1CCC12CC3CC(CC(C3)C1)C2 [Example 49] | 182 nM |
| O=C(O)c1ccc(NC(=O)c2nc(-c3ccccc3F)[nH]c2CCC23CC4CC(CC(C4)C2)C3)cc1 [Example 51, 4-{[5-(2-Adamantan-1-yl-ethyl)-2-(2-fluoro-phenyl)-1H-imidazole-4-carbonyl]-amino}-benzoic Acid] | 2630 nM |
| O=C(O)CCNC(=O)c1nc(-c2ccccc2F)[nH]c1CCC12CC3CC(CC(C3)C1)C2 [Example 52, 3-{[5-(2-Adamantan-1-yl-ethyl)-2-(2-fluoro-phenyl)-1H-imidazole-4-carbonyl]-amino}-propionic Acid] | 2570 nM |
| O=C(O)CNC(=O)c1nc(-c2ccccc2F)[nH]c1CCC12CC3CC(CC(C3)C1)C2 [Example 53, 2-{[5-(2-Adamantan-1-yl-ethyl)-2-(2-fluoro-phenyl)-1H-imidazole-4-carbonyl]-amino}-acetic Acid] | 1660 nM |
| O=C(O)c1cccc(NC(=O)c2nc(-c3ccccc3O)[nH]c2CCC23CC4CC(CC(C4)C2)C3)c1 [Example 64, 3-{[5-(2-Adamantan-1-yl-ethyl)-2-(2-hydroxy-phenyl)-1H-imidazole-4-carbonyl]-amino}-benzoic Acid] | 1380 nM |
| O=C(O)c1cccc(NC(=O)c2nc(-c3ccc(Cl)c(Cl)c3)[nH]c2CCC23CC4CC(CC(C4)C2)C3)c1 [Example 68, 3-{[5-(2-Adamantan-1-yl-ethyl)-2-(3,4-dichloro-phenyl)-1H-imidazole-4-carbonyl]-amino}-benzoic Acid] | 468 nM |
| CN(C)c1ccccc1-c1nc(C(=O)Nc2cccc(C(=O)O)c2)c(CCC23CC4CC(CC(C4)C2)C3)[nH]1 [Example 70, 3-{[5-(2-Adamantan-1-yl-ethyl)-2-(2-dimethylamino-phenyl)-1H-imidazole-4-carbonyl]-amino}-benzoic Acid] | 245 nM |
| O=C(O)c1cccc(NC(=O)c2nc[nH]c2CCC23CC4CC(CC(C4)C2)C3)c1 [Example 77, 3-{[5-(2-Adamantan-1-yl-ethyl)-1H-imidazole-4-carbonyl]-amino}-benzoic Acid] | 10000 nM |
| O=C(O)Cc1cccc(NC(=O)c2nc(-c3ccccc3)[nH]c2CCC23CC4CC(CC(C4)C2)C3)c1 [Example 82, (3-{[5-(2-Adamantan-1-yl-ethyl)-2-phenyl-1H-imidazole-4-carbonyl]-amino}-phenyl)-acetic Acid] | 13.2 nM |
| Cc1ccccc1-c1nc(C(=O)Nc2cccc(CC(=O)O)c2)c(CCC23CC4CC(CC(C4)C2)C3)[nH]1 [Example 83, (3-{[5-(2-Adamantan-1-yl-ethyl)-2-o-tolyl-1H-imidazole-4-carbonyl]-amino}-phenyl)-acetic Acid] | 2.24 nM |

Continued, values first:

| Ki | SMILES |
| --- | --- |
| 813 nM | O=C(O)c1cccc(NC(=O)c2[nH]c(-c3ccc4ccccc4c3)nc2CC2CCCCCC2)c1 [Example 21, 3-[(5-Cycloheptylmethyl-2-naphthalen-2-yl-1H-imidazole-4-carbonyl)-amino]-benzoic Acid] |
| 4070 nM | O=C(Nc1cc(CO)cc(CO)c1)c1[nH]c(-c2ccc3ccccc3c2)nc1CC1CCCCCC1 [Example 22, 5-Cycloheptylmethyl-2-naphthalen-2-yl-1H-imidazole-4-carboxylic Acid (3,5-bis-hydroxymethyl-phenyl)-amide] |
| 1230 nM | O=C(O)c1cc(NC(=O)c2nc(-c3cccc4ccccc34)[nH]c2CC2CCCCCC2)cc(C(=O)O)c1 [Example 23, 5-[(5-Cycloheptylmethyl-2-naphthalen-1-yl-1H-imidazole-4-carbonyl)-amino]-isophthalic Acid] |
| 69.2 nM | O=C(Nc1cc(-c2nnn[nH]2)cc(-c2nnn[nH]2)c1)c1nc(-c2ccccc2)[nH]c1CC1CCCCCC1 [Example 25, 5-Cycloheptyimethyl-2-phenyl-1H-imidazole-4-carboxylic Acid [3,5-bis-(1H-tetrazol-5-yl)-phenyl]-amide] |
| 3550 nM | O=C(O)c1cc(NC(=O)c2nc(CCc3ccccc3)[nH]c2CC2CCCCCC2)cc(C(=O)O)c1 [Example 27, 5-[(5-Cycloheptylmethyl-2-(2-phenyl-ethyl)-1H-imidazole-4-carbonyl)-amino]-isophthalic Acid] |
| 1230 nM | COc1cccc(-c2nc(C(=O)Nc3cc(C(=O)O)cc(C(=O)O)c3)c(CC3CCCCCC3)[nH]2)c1 [Example 28, 5-[(5-Cycloheptylmethyl-2-(3-methoxy-phenyl)-1H-imidazole-4-carbonyl)-amino]-isophthalic Acid] |
| 1480 nM | COc1ccc(-c2nc(C(=O)Nc3cc(C(=O)O)cc(C(=O)O)c3)c(CC3CCCCCC3)[nH]2)cc1 [Example 29, 5-[(5-Cycloheptylmethyl-2-(4-methoxy-phenyl)-1H-imidazole-4-carbonyl)-amino]-isophthalic Acid] |
| 1070 nM | O=C(O)c1cc(NC(=O)c2[nH]c(-c3ccc4[nH]ccc4c3)nc2CC2CCCCCC2)cc(C(=O)O)c1 [Example 30, 5-[(5-Cycloheptylmethyl-2-(1H-indol-5-yl)-1H-imidazole-4-carbonyl)-amino]-isophthalic Acid] |
| 1660 nM | CN(C)c1ccc(-c2nc(C(=O)Nc3cc(C(=O)O)cc(C(=O)O)c3)c(CC3CCCCCC3)[nH]2)cc1 [Example 31, 5-[(5-Cycloheptylmethyl-2-(4-dimethylamino-phenyl)-1H-imidazole-4-carbonyl)-amino]-isophthalic Acid] |
| 4790 nM | O=C(O)c1cc(NC(=O)c2nc(-c3cccnc3)[nH]c2CC2CCCCCC2)cc(C(=O)O)c1 [Example 32, 5-[(5-Cycloheptylmethyl-2-pyridin-3-yl-1H-imidazole-4-carbonyl)-amino]-isophthalic Acid] |
| 1860 nM | O=C(O)c1cc(NC(=O)c2nc(-c3ccc[nH]3)[nH]c2CC2CCCCCC2)cc(C(=O)O)c1 [Example 33, 5-[(5-Cycloheptylmethyl-2-(1H-pyrrol-2-yl)-1H-imidazole-4-carbonyl)-amino]-isophthalic Acid] |
| 1580 nM | O=C(O)c1cc(NC(=O)c2nc(C3CCCCC3)[nH]c2CC2CCCCCC2)cc(C(=O)O)c1 [Example 34, 5-[(5-Cycloheptylmethyl-2-cyclohexyl-1H-imidazole-4-carbonyl)-amino]-isophthalic Acid] |
| 3890 nM | O=C(O)c1cc(NC(=O)c2nc[nH]c2CC2CCCCCC2)cc(C(=O)O)c1 [Example 35, 5-[(5-Cycloheptylmethyl-1H-imidazole-4-carbonyl)-amino]-isophthalic Acid] |
| 3160 nM | O=C(O)c1cc(NC(=O)c2ncn(Cc3ccccc3)c2CC2CCCCCC2)cc(C(=O)O)c1 [Example 36, 5-[(1-Benzyl-5-cycloheptylmethyl-1H-imidazole-4-carbonyl)-amino]-isophthalic Acid] |
| 1120 nM | O=C(O)c1cccc(NC(=O)c2nc(-c3ccccc3)[nH]c2CCC2CCCCCC2)c1 [Example 38, 3-{[5-(2-Cycloheptyl-ethyl)-2-phenyl-1H-imidazole-4-carbonyl]-amino}-benzoic Acid] |
| 2040 nM | O=C(O)c1cc(NC(=O)c2nc(-c3ccccc3)[nH]c2CCC2CCCCCC2)cc(C(=O)O)c1 [Example 39, 5-{[5-(2-Cycloheptyl-ethyl)-2-phenyl-1H-imidazole-4-carbonyl]-amino}-isophthalic Acid] |
| 4370 nM | O=C(O)c1cc(NC(=O)c2nc(-c3ccccc3C(F)(F)F)[nH]c2CCC2CCCCCC2)cc(C(=O)O)c1 [Example 41, 5-{[5-(2-Cycloheptyl-ethyl)-2-(2-trifluoromethyl-phenyl)-1H-imidazole-4-carbonyl]-amino}-isophthalic Acid] |
| 120 nM | O=C(O)c1cc(NC(=O)c2nc(-c3ccc4ccccc4c3)[nH]c2CCC23CC4CC(CC(C4)C2)C3)cc(C(=O)O)c1 [Example 44, 5-{[5-(2-Adamantan-1-yl-ethyl)-2-naphthalene-2-yl-1H-imidazole-4-carbonyl]-amino}-isophthalic Acid] |
